Measured values published in ChEMBL document CHEMBL1139498, “Discovery of potent, orally available vanilloid receptor-1 antagonists. Structure-activity relationship of N-aryl cinnamides” (J Med Chem, 2005).

Tests used:
[1] = target: T1, Transient receptor potential cation channel subfamily V member 1 (Homo sapiens, UniProt Q8NER1); test: Inhibition of capsaicin-induced calcium uptake by transient receptor potential vanilloid type 1 expressed in CHO cells; format: functional, cell-based
[2] = target: T1, Transient receptor potential cation channel subfamily V member 1; test: Inhibition of pH-induced calcium uptake by transient receptor potential vanilloid type 1 expressed in CHO cells; format: functional, cell-based
[3] = Half life in rat after intravenous administration of 2 mg/kg; format: ADME, organism-based; design: dose 2 mg/kg, route intravenous; conditions: in vivo
[4] = Area under concentration time curve from time 0 to infinity was determined in rat after intravenous administration of 2 mg/kg; format: ADME, organism-based; design: time infinity, dose 2 mg/kg, route intravenous; conditions: in vivo
[5] = Steady state volume of distribution in rat after intravenous administration of 2 mg/kg; format: ADME, organism-based; design: dose 2 mg/kg, route intravenous; conditions: in vivo, read-out: Vss
[6] = Peak plasma concentration in rat after oral administration of 5 mg/kg; format: ADME, organism-based; design: dose 5 mg/kg, route oral
[7] = Area under concentration time curve from time 0 to infinity was determined in rat after oral administration of 5 mg/kg; format: ADME, organism-based; design: time infinity, dose 5 mg/kg, route oral; conditions: in vivo
[8] = Maximum time required to attain Cmax in rat after oral administration of 5 mg/kg; format: ADME, organism-based; design: dose 5 mg/kg, route oral; conditions: in vivo
[9] = Oral bioavailability in rat (dose 5 mg/kg); format: ADME, organism-based; conditions: in vivo
[10] = Plasma clearance in rat after intravenous administration of 2 mg/kg; format: ADME, organism-based; design: dose 2 mg/kg, route intravenous
[11] = Steady state volume of distribution in rat after intravenous administration of 3 mg/kg; format: ADME, organism-based; design: dose 3 mg/kg, route intravenous; conditions: in vivo, read-out: Vss
[12] = Half life in rat after intravenous administration of 3 mg/kg; format: ADME, organism-based; design: dose 3 mg/kg, route intravenous; conditions: in vivo
[13] = Area under concentration time curve from time 0 to infinity was determined in rat after intravenous administration of 3 mg/kg; format: ADME, organism-based; design: time infinity, dose 3 mg/kg, route intravenous; conditions: in vivo
[14] = Plasma clearance in rat after intravenous administration of 3 mg/kg; format: ADME, organism-based; design: dose 3 mg/kg, route intravenous
[15] = target: T1, Transient receptor potential cation channel subfamily V member 1; test: Agonistic activity for transient receptor potential vanilloid type 1 expressed in CHO cells; format: functional, cell-based

T1 sequence (Q8NER1 whole entry): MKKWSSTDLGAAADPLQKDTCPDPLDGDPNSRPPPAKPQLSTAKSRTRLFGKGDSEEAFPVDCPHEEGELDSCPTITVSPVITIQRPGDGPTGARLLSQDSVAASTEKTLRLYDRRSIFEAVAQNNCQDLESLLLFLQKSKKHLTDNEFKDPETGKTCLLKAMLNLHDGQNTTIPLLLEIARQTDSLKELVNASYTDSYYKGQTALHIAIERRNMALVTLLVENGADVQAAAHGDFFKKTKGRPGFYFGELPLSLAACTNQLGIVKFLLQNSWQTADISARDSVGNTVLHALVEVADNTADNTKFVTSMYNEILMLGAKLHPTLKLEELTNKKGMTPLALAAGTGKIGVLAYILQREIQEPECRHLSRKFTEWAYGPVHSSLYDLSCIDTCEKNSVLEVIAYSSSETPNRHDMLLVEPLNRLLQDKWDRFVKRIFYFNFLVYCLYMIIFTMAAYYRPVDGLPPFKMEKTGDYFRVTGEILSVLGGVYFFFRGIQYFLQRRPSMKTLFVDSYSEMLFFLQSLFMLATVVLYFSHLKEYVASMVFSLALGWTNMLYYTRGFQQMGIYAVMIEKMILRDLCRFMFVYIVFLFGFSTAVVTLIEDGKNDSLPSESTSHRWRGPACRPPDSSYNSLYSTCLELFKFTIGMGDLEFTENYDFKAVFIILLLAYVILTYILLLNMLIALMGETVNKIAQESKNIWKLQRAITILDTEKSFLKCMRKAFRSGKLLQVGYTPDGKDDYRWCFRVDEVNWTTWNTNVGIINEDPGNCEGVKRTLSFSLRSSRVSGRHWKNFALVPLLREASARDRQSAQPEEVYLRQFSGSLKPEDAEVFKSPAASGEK

| IC50 [1] | IC50 [2] | Structure (SMILES) | also measured |
| --- | --- | --- | --- |
| > 4000 nM | > 4000 nM | CC(C)(C)c1ccc(/C=C(/C(=O)Nc2ccc3c(c2)OCCO3)c2ccccc2)cc1 | – |
| 1800 nM | > 4000 nM | COc1ccc(/C=C/C(=O)Nc2ccc3c(c2)OCCO3)cc1 | – |
| 360 nM | 2700 nM | CCCCc1ccc(/C=C/C(=O)Nc2ccc3c(c2)OCCO3)cc1 | – |
| 270 nM | > 4000 nM | CC(C)(C)c1ccc(/C=C/C(=O)Nc2ccc3c(c2)OCC(=O)N3)cc1 | – |
| 14 nM | 110 nM | CC(C)(C)c1ccc(/C(=C/C(=O)Nc2ccc3c(c2)OCCO3)Cc2ccccc2)cc1 | – |
| 1800 nM | > 4000 nM | CC(C)(C)c1ccc(C2CC2C(=O)Nc2ccc3c(c2)OCCO3)cc1 (centres undefined) | – |
| > 4000 nM | > 4000 nM | O=C(/C=C/c1ccccc1)Nc1ccc2c(c1)OCCO2 | – |
| > 4000 nM | > 4000 nM | O=C(/C=C/c1ccc(O)cc1)Nc1ccc2c(c1)OCCO2 | – |
| 44 nM | 660 nM | CC(C)(C)c1ccc(/C(=C/C(=O)Nc2ccc3c(c2)OCCO3)c2ccncc2)cc1 | – |
| – | 600 nM | C/C(=C\c1ccc(C(C)(C)C)cc1)C(=O)Nc1ccc2c(c1)OCCO2 | – |
| 16 nM | 57 nM | CC(C)(C)c1ccc(/C=C/C(=O)Nc2ccc3c(c2)OCCN3)cc1 | – |
| 46 nM | 100 nM | O=C(/C=C/c1ccc(C(F)(F)F)cc1)Nc1ccc2c(c1)OCCO2 | – |
| 0.42 nM | 1 nM | O=C(/C=C/c1ccc(C(F)(F)F)nc1N1CCCCC1)Nc1ccc2cccnc2c1 | half-life [3]: 2.9 h; AUC [4]: 2100 ng·h/mL; Vd [5]: 2.8 L/kg; Cmax [6]: 320 ng/mL; AUC [7]: 2400 ng·h/mL; Tmax [8]: 2 h; F [9]: 17%; CL ([10]; in vivo): 13 mL/min/kg |
| 3900 nM | > 4000 nM | CN(C)CCC/C(=C\C(=O)Nc1ccc2c(c1)OCCO2)c1ccc(C(C)(C)C)cc1 | – |
| 190 nM | 440 nM | O=C(/C=C/c1ccc([N+](=O)[O-])cc1)Nc1ccc2c(c1)OCCO2 | – |
| 360 nM | 860 nM | CC(C)Cc1ccc(/C=C/C(=O)Nc2ccc3c(c2)OCCO3)cc1 | – |
| 60 nM | 470 nM | CC(C)(C)c1ccc(/C=C/C(=O)Nc2ccc3c(c2)OCCO3)c(Br)c1 | – |
| 2700 nM | > 4000 nM | CC(C)(C)c1ccc(C(=CC(=O)Nc2ccc3c(c2)OCCO3)c2ccc(C(C)(C)C)cc2)cc1 | – |
| 500 nM | 2900 nM | CC(C)(C)c1ccc(/C=C/C(=O)Nc2ccc3c(c2)OCCO3)nc1 | – |
| 110 nM | > 4000 nM | CC(C)(C)c1ccc(/C=C/C(=O)Nc2ccc3c(c2)NCCO3)cc1 | – |
| 20 nM | 120 nM | CC(C)(C)c1ccc(/C(=C/C(=O)Nc2ccc3c(c2)OCCO3)c2ccccc2)cc1 | – |
| 36 nM | 290 nM | CCOC(=O)CC/C(=C\C(=O)Nc1ccc2c(c1)OCCO2)c1ccc(C(C)(C)C)cc1 | – |

| IC50 [1] | IC50 [2] | Structure (SMILES) | also measured |
| --- | --- | --- | --- |
| 870 nM | 1290 nM | O=C(/C=C/c1ccc(C(F)(F)F)nc1)Nc1ccc2c(c1)OCCO2 | – |
| 16 nM | 94 nM | CC(C)C/C(=C\C(=O)Nc1ccc2c(c1)OCCO2)c1ccc(C(C)(C)C)cc1 | – |
| > 4000 nM | > 4000 nM | CC(C)(C)c1ccc(/C=C/CNc2ccc3c(c2)OCCO3)cc1 | – |
| 620 nM | > 4000 nM | CC(C)(C)c1cccc(/C=C/C(=O)Nc2ccc3c(c2)OCCO3)c1 | – |
| 1.9 nM | 1.3 nM | O=C(/C=C/c1ccc(C(F)(F)F)nc1N1CCOCC1)Nc1ccc2cccnc2c1 | half-life [3]: 0.9 h; AUC [4]: 2300 ng·h/mL; Vd [5]: 1.1 L/kg; Cmax [6]: 540 ng/mL; AUC(0-inf) [7]: 2600 ng·h/mL; Tmax [8]: 1.5 h; bioavailability [9]: 39%; clearance ([10]; plasma): 15 mL/min/kg |
| – | > 4000 nM | CC(C)(C)c1ccc(/C=C/C(=O)Nc2ccccc2)cc1 | – |
| 550 nM | > 4000 nM | COc1ccccc1NC(=O)/C=C/c1ccc(C(C)(C)C)cc1 | – |
| 1000 nM | > 4000 nM | O=C(/C=C/c1ccc(F)cc1)Nc1ccc2c(c1)OCCO2 | – |
| 280 nM | 1400 nM | CC(C)(C)c1ccc(/C=C/C(=S)Nc2ccc3c(c2)OCCO3)cc1 | – |
| – | 3200 nM | CC(C)(C)c1ccc(/C=C/C(=O)Nc2ccc3c(c2)OCCO3)cc1 (stereo in doubt; 34) | – |
| > 4000 nM | > 4000 nM | O=C(/C=C/c1ccc(-c2ccccc2)cc1)Nc1ccc2c(c1)OCCO2 | – |
| 61 nM | 960 nM | CC(C)(C)c1ccc(/C=C/C(=O)Nc2ccc3c(c2)CCCC3)cc1 | – |
| 36 nM | 160 nM | CC(C)(C)c1ccc(/C=C/C(=O)Nc2ccc3c(c2)NCCC3)cc1 | – |
| 360 nM | 870 nM | Cc1nc(C(F)(F)F)ccc1/C=C/C(=O)Nc1ccc2c(c1)OCCO2 | – |
| 21 nM | > 4000 nM | COc1cccc(NC(=O)/C=C/c2ccc(C(C)(C)C)cc2)c1 | – |
| 27 nM | 54 nM | O=C(/C=C/c1ccc(C(F)(F)F)nc1N1CCCCC1)Nc1ccc2c(c1)OCCO2 | – |
| 420 nM | – | Oc1cc2c(cc1O)CN(C(=S)NCCc1ccc(Cl)cc1)CCC2 [CAPSAZEPINE] | – |
| 210 nM | 1100 nM | Cc1ccc(/C=C/C(=O)Nc2ccc3c(c2)OCCO3)cc1 | – |
| 6.5 nM | > 4000 nM | CC(C)(C)c1ccc(/C=C/C(=O)Nc2ccc3c(c2)NC(=O)CO3)cc1 | – |
| – | 71 nM | CC(C)(C)c1ccc(/C=C/C(=O)Nc2ccc3c(c2)NC(=O)CC3)cc1 | – |
| 17 nM | 150 nM | CC(C)(C)c1ccc(/C=C/C(=O)Nc2ccc3c(c2)OCCO3)cc1 (stereo in doubt; 1) | Vd [11]: 2.1 L/kg; half-life [12]: 1.1 h; AUC [13]: 680 ng·h/mL; Cmax [6]: 25 ng/mL; AUC(0-inf) [7]: 24 ng·h/mL; Tmax [8]: 0.5 h; bioavailability [9]: 3%; clearance [14]: 73.3 mL/min/kg |
| 210 nM | 800 nM | CC/C(=C\c1ccc(C(C)(C)C)cc1)C(=O)Nc1ccc2c(c1)OCCO2 | – |

| IC50 [1] | IC50 [2] | Structure (SMILES) | also measured |
| --- | --- | --- | --- |
| 25 nM | 180 nM | CC(C)(C)c1ccc(/C(=C/C(=O)Nc2ccc3c(c2)OCCO3)c2ccc(C(F)(F)F)cc2)cc1 | – |
| 110 nM | 370 nM | O=C(/C=C/c1ccc(Br)cc1)Nc1ccc2c(c1)OCCO2 | – |
| > 4000 nM | > 4000 nM | CC(C)(C)c1ccc(/C=C/C(=O)Nc2ccc3c(c2)OCCO3)c(C(=O)O)c1 | – |
| 250 nM | 320 nM | O=C(/C=C/c1ccc(Cl)cc1)Nc1ccc2c(c1)OCCO2 | – |
| 100 nM | 2400 nM | CC(C)(C)c1ccc(/C=C/C(=O)Nc2ccc3c(c2)OCCO3)cn1 | – |
| – | 3200 nM | CC(C)(C)c1ccc(/C=C/C(=O)Oc2ccc3c(c2)OCCO3)cc1 | – |
| > 4000 nM | > 4000 nM | CN(C(=O)/C=C/c1ccc(C(C)(C)C)cc1)c1ccc2c(c1)OCCO2 | – |
| – | – | COc1cc(NC(=O)/C=C/c2ccc(C(C)(C)C)cc2)ccc1O | EC50 [15]: 440 nM |
| 570 nM | > 4000 nM | CC(C)(C)c1ccc(/C=C/C(=O)Nc2ccc3c(c2)OCO3)cc1 | – |
| 150 nM | 660 nM | CC(C)(C)c1ccc(CCC(=O)Nc2ccc3c(c2)OCCO3)cc1 | – |
| 140 nM | > 4000 nM | COc1ccc(NC(=O)/C=C/c2ccc(C(C)(C)C)cc2)cc1 | – |
| > 4000 nM | > 4000 nM | CC(C)(C)c1ccc(/C(=C/C(=O)Nc2ccc3c(c2)OCCO3)CCC(=O)O)cc1 | – |
| 78 nM | 510 nM | CC(C)(C)c1ccc(/C(=C/C(=O)Nc2ccc3c(c2)OCCO3)c2cccnc2)cc1 | – |
| – | 2.02 nM | CC(C)(C)c1ccc(/C=C/C(=O)Nc2ccc3cccnc3c2)cc1 | – |
| 15 nM | 26 nM | CCOC(=O)c1cc(C(C)(C)C)ccc1/C=C/C(=O)Nc1ccc2c(c1)OCCO2 | – |
| 170 nM | 220 nM | CCc1ccc(/C=C/C(=O)Nc2ccc3c(c2)OCCO3)cc1 | – |
| 55 nM | 82 nM | CC(C)c1ccc(/C=C/C(=O)Nc2ccc3c(c2)OCCO3)cc1 | – |
| 170 nM | > 4000 nM | COc1ccc(NC(=O)/C=C/c2ccc(C(C)(C)C)cc2)cc1OC | – |
| – | 430 nM | C/C(=C\C(=O)Nc1ccc2c(c1)OCCO2)c1ccc(C(C)(C)C)cc1 | – |
| 15 nM | 40 nM | O=C(/C=C/c1ccc(C(F)(F)F)nc1N1CCOCC1)Nc1ccc2c(c1)OCCO2 | – |
| – | > 4000 nM | COc1ccc(NC(=O)/C=C/c2ccc(C(C)(C)C)cc2)cc1O | – |
